# Results published in patent US12528826B2, “[1,4]oxazepino[2,3-c]quinolinone derivatives as BCL6 inhibitors” (Cancer Research Technology Limited, priority 2019, dated 2026).
# Biological target: T1, Trx-6×His-BCL6 (human BCL6 BTB domain covering amino-acid sequence 5-129) (Homo sapiens, UniProt P41182)
# T1 construct: made in house
# Test: HTRF assay (BCL6 / BCOR peptide)
# Format: binding
# Details: 1 nM Trx-6×His-BCL6, 300 nM BCOR-AF633 peptide, 2 hours incubation at room temperature
# Protocol: After 2 hours incubation at room temperature the plate was read on a Pherastar FSX (BMG Labtech) plate reader equipped with 337 nm laser excitation filter, a first emission filter at 620 nm and a second emission filter at 665 nm. The % inhibition at each concentration was calculated by normalising FRET ratio to the appropriate high (DMSO with all reagents) and low (DMSO without BCL6) controls.
row,Compound,HTRF avg pIC50
1,"COC1CN(c2ncc(Cl)c(Nc3ccc4c(c3)c3c(c(=O)n4C)OCC(F)(F)[C@H](C4CC4)N3)n2)C1 [Example 11w, (S)-10-((5-chloro-2-(3-methoxyazetidin-1-yl)pyrimidin-4-yl)amino)-2-cyclopropyl-3,3-difluoro-7-methyl-1,2,3,4-tetrahydro-[1,4]oxazepino[2,3-c]quinolin-6(7H)-one]",8.43

# Same assay, conditions: 1 nM Trx-6×His-BCL6, 300 nM BCOR-AF633 peptide, 2 hours incubation at room temperature; read-out: HTRF avg pIC50 (converted)
row,Compound,IC50 [nM]
1,"Cn1c(=O)c2c(c3cc(Nc4nc(N5CC(F)C5)ncc4Cl)ccc31)N[C@@H](C1CC1)C(F)(F)CO2 [Example 11q, (S)-10-((5-chloro-2-(3-fluoroazetidin-1-yl)pyrimidin-4-yl)amino)-2-cyclopropyl-3,3-difluoro-7-methyl-1,2,3,4-tetrahydro-[1,4]oxazepino[2,3-c]quinolin-6(7H)-one]",4.79
2,"Cn1c(=O)c2c(c3cc(Nc4nc(N5CC(C)(C#N)C5)ncc4Cl)ccc31)N[C@@H](C1CC1)C(F)(F)CO2 [Example 11s, (S)-1-(5-chloro-4-((2-cyclopropyl-3,3-difluoro-7-methyl-6-oxo-1,2,3,4,6,7-hexahydro-[1,4]oxazepino[2,3-c]quinolin-10-yl)amino)pyrimidin-2-yl)-3-methylazetidine-3-carbonitrile]",3.89
3,"Cn1c(=O)c2c(c3cc(Nc4nc(N5CC(CC#N)C5)ncc4Cl)ccc31)N[C@@H](C1CC1)C(F)(F)CO2 [Example 11t, (S)-2-(1-(5-chloro-4-((2-cyclopropyl-3,3-difluoro-7-methyl-6-oxo-1,2,3,4,6,7-hexahydro-[1,4]oxazepino[2,3-c]quinolin-10-yl)amino)pyrimidin-2-yl)azetidin-3-yl)acetonitrile]",3.47
4,"Cn1c(=O)c2c(c3cc(Nc4nc(N5CC(C(F)F)C5)ncc4Cl)ccc31)N[C@@H](C1CC1)C(F)(F)CO2 [Example 11u, (S)-10-((5-chloro-2-(3-(difluoromethyl)azetidin-1-yl)pyrimidin-4-yl)amino)-2-cyclopropyl-3,3-difluoro-7-methyl-1,2,3,4-tetrahydro-[1,4]oxazepino[2,3-c]quinolin-6(7H)-one]",11.5
5,"Cn1c(=O)c2c(c3cc(Nc4nc(N5CCC5)ncc4Cl)ccc31)N[C@@H](C1CC1)C(F)(F)CO2 [Example 11v, (S)-10-((2-(azetidin-1-yl)-5-chloropyrimidin-4-yl)amino)-2-cyclopropyl-3,3-difluoro-7-methyl-1,2,3,4-tetrahydro-[1,4]oxazepino[2,3-c]quinolin-6(7H)-one]",5.37
6,"COC1(C)CN(c2ncc(Cl)c(Nc3ccc4c(c3)c3c(c(=O)n4C)OCC(F)(F)[C@H](C4CC4)N3)n2)C1 [Example 11x, (S)-10-((5-chloro-2-(3-methoxy-3-methylazetidin-1-yl)pyrimidin-4-yl)amino)-2-cyclopropyl-3,3-difluoro-7-methyl-1,2,3,4-tetrahydro-[1,4]oxazepino[2,3-c]quinolin-6(7H)-one]",3.55
7,"C[C@@H]1C[C@H](N)CN(c2ncc(Cl)c(Nc3ccc4c(c3)c3c(c(=O)n4C)OCC(F)(F)[C@H](C4CC4)N3)n2)C1 [Example 12b, (S)-10-((2-((3S,5R)-3-amino-5-methylpiperidin-1-yl)-5-chloropyrimidin-4-yl)amino)-2-cyclopropyl-3,3-difluoro-7-methyl-1,2,3,4-tetrahydro-[1,4]oxazepino[2,3-c]quinolin-6(7H)-one]",2.51
8,"C[C@H]1C[C@@H](N)CN(c2ncc(Cl)c(Nc3ccc4c(c3)c3c(c(=O)n4C)OCC(F)(F)[C@H](C4CC4)N3)n2)C1 [Example 12c, (S)-10-((2-((3R,5S)-3-amino-5-methylpiperidin-1-yl)-5-chloropyrimidin-4-yl)amino)-2-cyclopropyl-3,3-difluoro-7-methyl-1,2,3,4-tetrahydro-[1,4]oxazepino[2,3-c]quinolin-6(7H)-one]",2.95
9,"Cn1c(=O)c2c(c3cc(Nc4nc(N5CC6CC(C5)O6)ncc4Cl)ccc31)N[C@@H](C1CC1)C(F)(F)CO2 [Example 12d, (2S)-10-((2-(6-oxa-3-azabicyclo[3.1.1]heptan-3-yl)-5-chloropyrimidin-4-yl)amino)-2-cyclopropyl-3,3-difluoro-7-methyl-1,2,3,4-tetrahydro-[1,4]oxazepino[2,3-c]quinolin-6(7H)-one]",4.9
10,"C[C@@H]1CN(C)CCN(c2ncc(Cl)c(Nc3ccc4c(c3)c3c(c(=O)n4C)OCC(F)(F)[C@H](C4CC4)N3)n2)C1 [Example 12g, (S)-10-((5-chloro-2-((R)-4,6-dimethyl-1,4-diazepan-1-yl)pyrimidin-4-yl)amino)-2-cyclopropyl-3,3-difluoro-7-methyl-1,2,3,4-tetrahydro-[1,4]oxazepino[2,3-c]quinolin-6(7H)-one:(S)-10-((5-chloro-2-((S)-4,6-dimethyl-1,4-diazepan-1-yl)pyrimidin-4-yl)amino)-2-cyclopropyl-3,3-difluoro-7-methyl-1,2,3,4-tetrahydro-[1,4]oxazepino[2,3-c]quinolin-6(7H)-one (1:1)]",2.63
11,"C[C@H]1CCN(c2ncc(Cl)c(Nc3ccc4c(c3)c3c(c(=O)n4C)OCC(F)(F)[C@H](C4CC4)N3)n2)C1 [Example 12x01, (S)-10-((5-chloro-2-((S)-3-methylpyrrolidin-1-yl)pyrimidin-4-yl)amino)-2-cyclopropyl-3,3-difluoro-7-methyl-1,2,3,4-tetrahydro-[1,4]oxazepino[2,3-c]quinolin-6(7H)-one]",26.9
12,"C[C@@H]1CCN(c2ncc(Cl)c(Nc3ccc4c(c3)c3c(c(=O)n4C)OCC(F)(F)[C@H](C4CC4)N3)n2)C1 [Example 12x02, (S)-10-((5-chloro-2-((R)-3-methylpyrrolidin-1-yl)pyrimidin-4-yl)amino)-2-cyclopropyl-3,3-difluoro-7-methyl-1,2,3,4-tetrahydro-[1,4]oxazepino[2,3-c]quinolin-6(7H)-one]",21.4
13,"C[C@H]1C[C@@H](F)CN(c2ncc(Cl)c(Nc3ccc4c(c3)c3c(c(=O)n4C)OCC(F)(F)[C@H](C4CC4)N3)n2)C1 [Example 12x03, (S)-10-((5-chloro-2-((3R,5S)-3-fluoro-5-methylpiperidin-1-yl)pyrimidin-4-yl)amino)-2-cyclopropyl-3,3-difluoro-7-methyl-1,2,3,4-tetrahydro-[1,4]oxazepino[2,3-c]quinolin-6(7H)-one]",15.5
14,"CO[C@@H]1C[C@H](C)CN(c2ncc(Cl)c(Nc3ccc4c(c3)c3c(c(=O)n4C)OCC(F)(F)[C@H](C4CC4)N3)n2)C1 [Example 12x05, (S)-10-((5-chloro-2-((3R,5S)-3-methoxy-5-methylpiperidin-1-yl)pyrimidin-4-yl)amino)-2-cyclopropyl-3,3-difluoro-7-methyl-1,2,3,4-tetrahydro-[1,4]oxazepino[2,3-c]quinolin-6(7H)-one]",3.72
15,"CC1CN(c2ncc(Cl)c(Nc3ccc4c(c3)c3c(c(=O)n4C)OCC(F)(F)[C@H](C4CC4)N3)n2)CC(C)S1 (stereo partly drawn) [Example 12x06, (2S)-10-((5-chloro-2-(2,6-dimethylthiomorpholino)pyrimidin-4-yl)amino)-2-cyclopropyl-3,3-difluoro-7-methyl-1,2,3,4-tetrahydro-[1,4]oxazepino[2,3-c]quinolin-6(7H)-one]",30.2
16,"CC1CCCN(c2ncc(Cl)c(Nc3ccc4c(c3)c3c(c(=O)n4C)OCC(F)(F)[C@H](C4CC4)N3)n2)C1C (stereo partly drawn) [Example 12x08, (2S)-10-((5-chloro-2-(2,3-dimethylpiperidin-1-yl)pyrimidin-4-yl)amino)-2-cyclopropyl-3,3-difluoro-7-methyl-1,2,3,4-tetrahydro-[1,4]oxazepino[2,3-c]quinolin-6(7H)-one]",58.9
